US9339463B2, “Micronized opioid compositions having a specific particle size distribution” (priority 2007, dated 2016)

Assays:
Assay type in all cases: physicochemical
[1] = Particle size distribution by laser diffraction (Malvern Mastersizer 2000), oxycodone base
[2] = Particle size by optical microscopy, number % undersize; conditions: mean diameter
Protocol: (§1) As a secondary analytical method, the micronized and the non-micronized oxycodone analyzed by laser diffraction with results shown in Table 1, were analyzed by optical microscopy to evaluate particle size and the results are shown in Table 2. Sample aliquots (˜50 mg for micronized and ˜225 mg for non-micronized) were dispersed in 10 ml of sunflower oil and viewed on a Nikon microscope equipped with a 10× objective. Particle size (mean diameter) was determined using Image Pro® Plus software and expressed as a number % undersize. The particle size values determined by optical microscopy as shown in Table 2 are consistent with the laser diffraction particle size data shown in Table 1.

[3] = Chemical stability on storage: assay and impurities
Protocol: (§2) Samples of Example 2 and additional samples comprising micronized and non-micronized oxycodone useful for exemplary dosage forms are tested for their chemical stability and physical stability. Based on a comparison of stability data from micronized and non-micronized samples stored at both 25° C./60% RH and 40 C.°/75% RH, no differences are observed in the impurity profile through three months of study as shown in Tables 4 and 5 for exemplary lots. The impurities analyzed include (HOXY), 14-Hydroxycodeinone; (DHOXYN), 7,8-Dihydro-8,14-Dihydroxycodeinone; (DHOXY), 7,8-Dihydro-14-hydroxycodeine; (OXYE), Oxycodone ethylenolate; (OXYN), 1-Hydroxyoxycodone and Oxycodone N-oxide. Most of the impurities are found to be below the limit of quantitation (LOQ), except for HOXY and DHOXYN which were unchanged at 0.1%. […] The solid state stability of the micronized oxycodone is monitored for particle size, XRPD, DSC, and microscopy as shown in Table 6.

[4] = Physical stability on storage: particle size (Dv90) by laser diffraction
[5] = Physical stability on storage: DSC onset melt
Protocol: The micronized lots may also be analyzed by Differential Scanning Calorimetry (DSC). DSC is performed on a TA instrument Q100 using a heating ramp from 25-235° C. at a rate of 5° C./min. […] The sharp endotherm observed is consistent with a crystalline material and the absence of other thermal events proves that there were no polymorph transformations during melting.
as §2

[6] = Physical stability on storage: microscopy
Protocol: as §1, §2

[7] = Table 1 analysis, lot 2 in duplicate
[8] = additional laser diffraction analysis, Table 3

With `COc1ccc2c3c1O[C@H]1C(=O)CC[C@@]4(O)[C@@H](C2)N(C)CC[C@]314` [Lot 1, oxycodone] the “Particle size (Dv10)” value [1, 7] was 0.5 μ, the “Particle size (Dv50)” value [1, 7] was 1.4 μ and the “Particle size (Dv90)” value [1, 7] was 3.0 μ. The “Particle size (Dv10)” value [1, 8] was 0.7 μ, the “Particle size (Dv50)” value [1, 8] was 2.1 μ and the “Particle size (Dv90)” value [1, 8] was 5.1 μ. The “% ≦ 1μ” value [2] was 30.5%, the “% ≦ 5μ” value [2] was 92.7% and the “% ≦ 10μ” value [2] was 99.5%. For the same molecule, the 1-HydroxyOXY ([3]; 5° C./60% RH, 1 mo (Table 4)) was “<LOQ”, the 1-HydroxyOXY ([3]; 5° C./60% RH, 3 mo (Table 4)) was “<LOQ” and the Assay ([3]; 25° C./60% RH, 1 mo) was 98.9%. The “DHOXY (7,8-Dihydro-14-hydroxycodeine)” value ([3]; 25° C./60% RH, 1 mo) was “<LOQ”, the “DHOXYN (7,8-Dihydro-8,14-Dihydroxycodeinone)” value (shortened to “DHOXYN”) ([3]; 25° C./60% RH, 1 mo) was 0.10% and the “HOXY (14-Hydroxycodeinone)” value ([3]; 25° C./60% RH, 1 mo) was 0.08%. For the same molecule, the “OXYE (Oxycodone ethylenolate)” value ([3]; 25° C./60% RH, 1 mo) was “<LOQ”, the OXYN ([3]; 25° C./60% RH, 1 mo) was “<LOQ” and the “Other (impurities; Table 5: >0.05%)” value ([3]; 25° C./60% RH, 1 mo) was “<LOQ”. For the same molecule, the Total impurities ([3]; 25° C./60% RH, 1 mo) was 0.18%, the Assay ([3]; 25° C./60% RH, 3 mo) was 99.9% and the “DHOXY (7,8-Dihydro-14-hydroxycodeine)” value ([3]; 25° C./60% RH, 3 mo) was “<LOQ”. For the same molecule, the “DHOXYN” value ([3]; 25° C./60% RH, 3 mo) was 0.10%, the “HOXY (14-Hydroxycodeinone)” value ([3]; 25° C./60% RH, 3 mo) was 0.08% and the “OXYE (Oxycodone ethylenolate)” value ([3]; 25° C./60% RH, 3 mo) was “<LOQ”. The OXYN ([3]; 25° C./60% RH, 3 mo) was “<LOQ”, the “Other (impurities; Table 5: >0.05%)” value ([3]; 25° C./60% RH, 3 mo) was “<LOQ” and the Total impurities ([3]; 25° C./60% RH, 3 mo) was 0.18%. For the same molecule, the 1-HydroxyOXY ([3]; 40° C./75% RH, 1 mo) was “<LOQ”, the Assay ([3]; 40° C./75% RH, 1 mo) was 100.0% and the “DHOXY (7,8-Dihydro-14-hydroxycodeine)” value ([3]; 40° C./75% RH, 1 mo) was “<LOQ”. For the same molecule, the “DHOXYN” value ([3]; 40° C./75% RH, 1 mo) was 0.10%, the “HOXY (14-Hydroxycodeinone)” value ([3]; 40° C./75% RH, 1 mo) was 0.08% and the “OXYE (Oxycodone ethylenolate)” value ([3]; 40° C./75% RH, 1 mo) was “<LOQ”. The OXYN ([3]; 40° C./75% RH, 1 mo) was “<LOQ”, the “Other (impurities; Table 5: >0.05%)” value ([3]; 40° C./75% RH, 1 mo) was “<LOQ” and the Total impurities ([3]; 40° C./75% RH, 1 mo) was 0.18%. The 1-HydroxyOXY ([3]; 40° C./75% RH, 3 mo) was “<LOQ”, the Assay ([3]; 40° C./75% RH, 3 mo) was 99.5% and the “DHOXY (7,8-Dihydro-14-hydroxycodeine)” value ([3]; 40° C./75% RH, 3 mo) was “<LOQ”. For the same molecule, the “DHOXYN” value ([3]; 40° C./75% RH, 3 mo) was 0.10%, the “HOXY (14-Hydroxycodeinone)” value ([3]; 40° C./75% RH, 3 mo) was 0.08% and the “OXYE (Oxycodone ethylenolate)” value ([3]; 40° C./75% RH, 3 mo) was “<LOQ”. The OXYN ([3]; 40° C./75% RH, 3 mo) was “<LOQ”, the “Other (impurities; Table 5: >0.05%)” value ([3]; 40° C./75% RH, 3 mo) was “<LOQ” and the Total impurities ([3]; 40° C./75% RH, 3 mo) was 0.18%. For the same molecule, the 1-HydroxyOXY ([3]; Time 0) was “<LOQ”, the Assay ([3]; Time 0) was 99.3% and the “DHOXY (7,8-Dihydro-14-hydroxycodeine)” value ([3]; Time 0) was “<LOQ”. For the same molecule, the “DHOXYN” value ([3]; Time 0) was 0.10%, the “HOXY (14-Hydroxycodeinone)” value ([3]; Time 0) was 0.08% and the “OXYE (Oxycodone ethylenolate)” value ([3]; Time 0) was “<LOQ”. The OXYN ([3]; Time 0) was “<LOQ”, the “Other (impurities; Table 5: >0.05%)” value ([3]; Time 0) was “<LOQ” and the Total impurities ([3]; Time 0) was 0.18%. For the same molecule, the “Particle size (Dv90)” value ([4]; 25° C./60% RH, 3 months) was 6 μ, the “Particle size (Dv90)” value ([4]; 40° C./75% RH, 3 months) was 11 μ and the “Particle size (Dv90)” value ([4]; Time 0) was 4 μ. The “DSC Onset Melt” value ([5]; 25° C./60% RH, 3 mo) was 221.8 °C, the “DSC Onset Melt” value ([5]; 40° C./75% RH, 3 mo) was 221.9 °C and the “DSC Onset Melt” value ([5]; Time 0) was 222.0 °C. For the same molecule, the “Microscopy, ≦10 μ” value ([6]; 25° C./60% RH, 3 mo) was 98.4%, the “Microscopy, ≦10 μ” value ([6]; 40° C./75% RH, 3 mo) was 98.2% and the “Microscopy, ≦10 μ” value ([6]; Time 0) was 99.5%.
